This passage reports MIC, IC50 and remaining activity results from patent US20250002455A1, “NEW N-PHENYLPYRROLAMIDE INHIBITORS OF DNA GYRASE AND TOPOISOMERASE IV WITH ANTIBACTERIAL ACTIVITY” (priority 2020, published 2025).

One experiment deals with S. aureus ATCC 29213. The experiment is described as follows: Microbroth dilution MIC (CLSI). The class given is cell-based. The note with it: Staphylococcus aureus, ATCC29213; S. aureus ATCC 29213; read-out: MIC. The essentials: (§1)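 CLSI microbroth dilution per M07-A8 (aerobes) and M11-A8 (anaerobes). Compounds dissolved and serially diluted two-fold in 100% DMSO. MIC taken as the lowest concentration giving no visible growth.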
In general terms: In broth dilution the organism is exposed to a series of concentrations in liquid medium.

Another experiment deals with E. coli ATCC 25922. Nature of the experiment: Microbroth dilution MIC (CLSI). Type of experiment: cell-based. The note with it: Escherichia coli, ATCC25922; E. coli ATCC 25922; read-out: MIC. The essentials: as §1
The test system of a further experiment is K. pneumoniae ATCC 10031. Nature of the experiment: Microbroth dilution MIC (CLSI). The class given is cell-based. The note with it: Klebsiella pneumoniae, ATCC10031; K. pneumoniae ATCC 10031; read-out: MIC. The essentials:
as §1

For the next experiment, the system named is P. aeruginosa ATCC 27853. The experiment is described as follows: Microbroth dilution MIC (CLSI). Type of experiment: cell-based. As to conditions: Pseudomonas aeruginosa, ATCC27853; P. aeruginosa ATCC 27853; read-out: MIC. The essentials:
as §1

A further experiment has as its system A. baumannii ATCC 17978. The experiment is described as follows: Microbroth dilution MIC (CLSI). Type of experiment: cell-based. As to conditions: Acinetobacter baumannii, ATCC17978; A. baumannii ATCC 17978; read-out: MIC. The procedure, abridged: as §1
Experiment [1] concerns S. aureus ATCC 43300 (MRSA). Nature of the experiment: Microbroth dilution MIC (CLSI). The note with it: Staphylococcus aureus; S. aureus ATCC 43300 (MRSA); read-out: MIC. The class given is cell-based. The essentials: as §1
In another experiment the test system is E. faecalis ATCC 29212. Nature of the experiment: Microbroth dilution MIC (CLSI). As to conditions: Enterococcus faecalis, ATCC29212; E. faecalis ATCC 29212; read-out: MIC. Type of experiment: cell-based. The procedure, abridged:
as §1

In experiment [2] the test system is E. spp. cloacae ATCC 13047. Nature of the experiment: Microbroth dilution MIC (CLSI). The class given is cell-based. As to conditions: Enterobacter cloacae, ATCC13047; E. spp. cloacae ATCC 13047; read-out: MIC. The procedure, abridged: as §1
Experiment [3] addresses DNA gyrase from Mycobacterium tuberculosis (Mycobacterium tuberculosis, UniProt P9WG45). The experiment is described as follows: Gel-based supercoiling assay. The note with it: M. tuberculosis DNA gyrase. Type of experiment: biochemical. From the text:
Example compound 18 was additionally evaluated against DNA gyrase from Mycobacterium tuberculosis using a gel-based supercoiling assay.

Experiment [4] has as its target T1, S. aureus topoisomerase IV (Staphylococcus aureus, UniProt P0C1S7).
T1 construct: purchased Inspiralis
The experiment is described as follows: Topoisomerase IV inhibition assay (Inspiralis, streptavidin-coated plates). Type of experiment: biochemical. As to conditions: S. aureus topo IV; read-out: IC50. The protocol:
Inhibitory activities for compounds of the present invention were determined on E. coli and S. aureus DNA gyrase and topoisomerase IV in an assay from Inspiralis on streptavidin-coated 96-well microtiter plates from Thermo scientific Pierce. […] After washing off the unbound oligonucleotide, the enzyme test was performed. […] Reaction solutions were incubated at 37° C. for 30 min. After that, the TF buffer (50 mM NaOAc with pH 5.0, 50 mM NaCl and 50 mM MgCl2) was added to terminate the enzymatic reaction. After additional incubation for 30 min at rt, during which biotin-oligonucleotide-plasmid triplex was formed, the unbound plasmid was washed off using TF buffer and SybrGOLD in T10 buffer (10 mM Tris HCl with pH 8.0 and 1 mM EDTA) was added. […] Initial screening was done at 100 or 10 nM concentration of inhibitors against E. coli DNA gyrase or 1 μM or 100 nM concentration against S. aureus DNA gyrase and E. coli and S. aureus topo IV. […] GraphPad Prism 6.0 software was used to calculate the IC50 values. The result is given as the average value of three independent measurements. […] Chemoth.

Another experiment has as its target T2, E. coli DNA gyrase (Escherichia coli, UniProt P0AES6).
T2 construct: purchased Inspiralis
Nature of the experiment: biochemical. The note with it: E. coli DNA gyrase; read-out: IC50. The procedure, abridged:
(§2)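 Triplex-capture format: plasmid bound to a biotinylated oligonucleotide on streptavidin plates after reaction at 37 °C for 30 min. The reaction was stopped with TF buffer (50 mM NaOAc pH 5.0, 50 mM NaCl, 50 mM MgCl2), and captured DNA was stained with SybrGOLD. IC50 values are the mean of three independent measurements.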

Another experiment concerns the target T3, S. aureus DNA gyrase (Staphylococcus aureus, UniProt P0A0K8).
T3 construct: purchased Inspiralis
Nature of the experiment: biochemical. As to conditions: S. aureus DNA gyrase, read-out: RA (residual activity of the enzyme). The essentials: as §2

Bounds are passed on as bounds.

T3 sequence (P20831 whole entry): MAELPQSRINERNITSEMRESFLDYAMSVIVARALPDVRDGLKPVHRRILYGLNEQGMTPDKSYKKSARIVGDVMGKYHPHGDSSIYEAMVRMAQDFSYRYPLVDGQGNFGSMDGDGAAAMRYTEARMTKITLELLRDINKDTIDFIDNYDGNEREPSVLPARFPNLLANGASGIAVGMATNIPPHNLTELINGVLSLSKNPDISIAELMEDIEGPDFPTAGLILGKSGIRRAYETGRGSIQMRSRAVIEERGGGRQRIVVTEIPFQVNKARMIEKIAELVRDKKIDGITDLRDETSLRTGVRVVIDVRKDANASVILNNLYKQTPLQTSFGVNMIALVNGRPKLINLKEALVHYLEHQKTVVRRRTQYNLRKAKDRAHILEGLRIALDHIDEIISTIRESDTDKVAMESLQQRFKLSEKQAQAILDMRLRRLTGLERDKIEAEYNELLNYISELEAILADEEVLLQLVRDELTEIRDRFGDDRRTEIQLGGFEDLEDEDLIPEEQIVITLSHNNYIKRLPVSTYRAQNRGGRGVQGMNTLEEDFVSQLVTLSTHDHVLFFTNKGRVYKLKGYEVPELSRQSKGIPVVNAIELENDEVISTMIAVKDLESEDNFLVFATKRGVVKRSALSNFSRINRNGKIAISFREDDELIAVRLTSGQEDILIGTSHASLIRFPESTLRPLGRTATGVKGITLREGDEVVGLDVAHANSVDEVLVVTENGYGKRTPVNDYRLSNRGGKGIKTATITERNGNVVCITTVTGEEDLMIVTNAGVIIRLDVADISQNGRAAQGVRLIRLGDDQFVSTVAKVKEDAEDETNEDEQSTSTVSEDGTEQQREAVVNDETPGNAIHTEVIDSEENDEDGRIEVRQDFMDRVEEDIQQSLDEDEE
T3 sequence (P0A0K8 whole entry): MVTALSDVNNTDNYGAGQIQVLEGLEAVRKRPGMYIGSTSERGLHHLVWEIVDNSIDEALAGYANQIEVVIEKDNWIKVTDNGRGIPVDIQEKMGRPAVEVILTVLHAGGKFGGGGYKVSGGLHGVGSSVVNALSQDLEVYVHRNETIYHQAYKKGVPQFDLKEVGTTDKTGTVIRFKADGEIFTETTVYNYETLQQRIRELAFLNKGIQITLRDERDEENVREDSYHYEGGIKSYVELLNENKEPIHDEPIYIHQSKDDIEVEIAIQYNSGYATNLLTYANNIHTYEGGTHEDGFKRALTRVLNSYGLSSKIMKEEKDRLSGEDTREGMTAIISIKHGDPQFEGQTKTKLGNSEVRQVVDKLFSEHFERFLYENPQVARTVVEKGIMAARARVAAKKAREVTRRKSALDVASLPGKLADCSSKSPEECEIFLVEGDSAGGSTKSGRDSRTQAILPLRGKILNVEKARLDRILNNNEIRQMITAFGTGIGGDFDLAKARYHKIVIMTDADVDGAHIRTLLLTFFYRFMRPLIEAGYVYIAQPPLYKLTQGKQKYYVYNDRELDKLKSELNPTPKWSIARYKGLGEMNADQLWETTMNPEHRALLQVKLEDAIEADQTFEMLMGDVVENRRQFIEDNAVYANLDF
T1 sequence (P0C1U9 whole entry): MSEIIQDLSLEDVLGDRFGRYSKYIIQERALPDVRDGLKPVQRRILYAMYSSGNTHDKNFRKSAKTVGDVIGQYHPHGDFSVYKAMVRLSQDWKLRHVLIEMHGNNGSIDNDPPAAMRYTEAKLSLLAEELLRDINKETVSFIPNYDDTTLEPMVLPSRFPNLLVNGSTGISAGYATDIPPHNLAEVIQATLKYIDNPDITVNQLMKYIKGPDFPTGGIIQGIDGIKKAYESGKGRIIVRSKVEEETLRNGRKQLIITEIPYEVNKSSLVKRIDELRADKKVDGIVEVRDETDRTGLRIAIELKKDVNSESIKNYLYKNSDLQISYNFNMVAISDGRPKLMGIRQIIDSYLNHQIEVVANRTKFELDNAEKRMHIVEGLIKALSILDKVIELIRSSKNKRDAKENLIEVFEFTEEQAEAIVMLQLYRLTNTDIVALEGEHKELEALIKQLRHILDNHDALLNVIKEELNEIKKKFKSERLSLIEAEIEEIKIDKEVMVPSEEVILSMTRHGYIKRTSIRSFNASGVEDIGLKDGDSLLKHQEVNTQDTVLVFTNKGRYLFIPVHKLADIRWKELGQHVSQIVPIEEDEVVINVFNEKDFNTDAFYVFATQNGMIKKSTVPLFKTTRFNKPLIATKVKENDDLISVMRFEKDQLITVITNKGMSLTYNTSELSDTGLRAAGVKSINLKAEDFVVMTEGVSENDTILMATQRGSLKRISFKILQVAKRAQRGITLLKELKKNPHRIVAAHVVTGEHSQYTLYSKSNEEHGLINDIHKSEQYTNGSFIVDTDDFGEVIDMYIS
T1 sequence (P0C1S7 whole entry): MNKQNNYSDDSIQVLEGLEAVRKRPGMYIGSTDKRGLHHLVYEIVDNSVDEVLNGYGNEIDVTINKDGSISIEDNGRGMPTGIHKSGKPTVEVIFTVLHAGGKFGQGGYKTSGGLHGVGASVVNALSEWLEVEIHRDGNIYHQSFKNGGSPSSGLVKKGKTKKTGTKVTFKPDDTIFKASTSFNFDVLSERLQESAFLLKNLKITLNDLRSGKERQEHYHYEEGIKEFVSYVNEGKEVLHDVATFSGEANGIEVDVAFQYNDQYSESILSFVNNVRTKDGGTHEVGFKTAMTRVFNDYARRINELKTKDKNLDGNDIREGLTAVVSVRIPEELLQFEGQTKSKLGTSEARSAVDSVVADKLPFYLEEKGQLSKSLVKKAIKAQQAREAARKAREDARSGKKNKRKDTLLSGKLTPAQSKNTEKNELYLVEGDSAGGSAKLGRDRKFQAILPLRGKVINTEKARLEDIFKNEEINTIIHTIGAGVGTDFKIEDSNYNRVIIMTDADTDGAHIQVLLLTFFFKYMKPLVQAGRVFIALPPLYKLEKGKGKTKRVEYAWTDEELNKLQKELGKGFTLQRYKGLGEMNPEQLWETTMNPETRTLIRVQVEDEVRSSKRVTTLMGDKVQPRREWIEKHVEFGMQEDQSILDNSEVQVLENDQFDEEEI
Chain of DNA gyrase from Mycobacterium tuberculosis (P9WG47 whole entry): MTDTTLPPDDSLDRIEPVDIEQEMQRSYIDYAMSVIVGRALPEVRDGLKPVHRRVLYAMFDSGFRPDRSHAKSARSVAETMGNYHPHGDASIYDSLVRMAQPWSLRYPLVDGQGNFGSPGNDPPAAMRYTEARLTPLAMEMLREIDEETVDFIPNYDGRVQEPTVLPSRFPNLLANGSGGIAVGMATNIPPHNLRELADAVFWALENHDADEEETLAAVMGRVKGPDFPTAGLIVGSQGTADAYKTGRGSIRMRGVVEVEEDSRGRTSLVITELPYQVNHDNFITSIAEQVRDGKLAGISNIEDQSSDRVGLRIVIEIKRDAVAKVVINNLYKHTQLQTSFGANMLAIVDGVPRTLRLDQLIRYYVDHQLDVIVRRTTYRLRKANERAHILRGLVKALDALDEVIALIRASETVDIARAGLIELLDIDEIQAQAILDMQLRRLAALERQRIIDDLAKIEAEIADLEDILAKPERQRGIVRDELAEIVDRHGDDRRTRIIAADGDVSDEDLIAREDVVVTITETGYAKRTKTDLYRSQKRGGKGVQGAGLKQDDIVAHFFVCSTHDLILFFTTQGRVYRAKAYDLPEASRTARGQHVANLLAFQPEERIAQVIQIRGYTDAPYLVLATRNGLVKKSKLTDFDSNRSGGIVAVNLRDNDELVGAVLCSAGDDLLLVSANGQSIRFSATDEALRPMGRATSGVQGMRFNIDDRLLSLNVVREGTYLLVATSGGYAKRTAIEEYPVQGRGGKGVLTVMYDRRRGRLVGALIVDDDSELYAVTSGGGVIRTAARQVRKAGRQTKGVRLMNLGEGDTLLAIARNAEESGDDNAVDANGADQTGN
Chain of DNA gyrase from Mycobacterium tuberculosis (P9WG45 whole entry): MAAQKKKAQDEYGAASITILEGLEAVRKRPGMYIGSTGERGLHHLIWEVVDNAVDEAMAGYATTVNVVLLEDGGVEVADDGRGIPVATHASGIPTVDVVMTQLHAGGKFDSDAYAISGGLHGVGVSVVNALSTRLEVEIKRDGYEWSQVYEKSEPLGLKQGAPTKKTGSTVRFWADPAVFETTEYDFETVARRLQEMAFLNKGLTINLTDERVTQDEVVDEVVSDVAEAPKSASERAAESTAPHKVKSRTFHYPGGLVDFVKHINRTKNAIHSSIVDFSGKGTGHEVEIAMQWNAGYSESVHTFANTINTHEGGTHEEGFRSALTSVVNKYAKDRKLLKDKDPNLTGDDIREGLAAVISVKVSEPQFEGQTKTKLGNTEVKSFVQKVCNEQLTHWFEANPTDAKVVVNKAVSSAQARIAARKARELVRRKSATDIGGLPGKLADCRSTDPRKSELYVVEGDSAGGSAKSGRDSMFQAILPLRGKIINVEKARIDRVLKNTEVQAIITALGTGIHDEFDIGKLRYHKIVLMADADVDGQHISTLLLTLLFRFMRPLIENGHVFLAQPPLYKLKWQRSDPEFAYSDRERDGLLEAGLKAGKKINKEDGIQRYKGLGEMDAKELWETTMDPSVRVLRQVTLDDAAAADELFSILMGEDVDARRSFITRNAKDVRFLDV

For `Cc1[nH]c(C(=O)Nc2ccc(-c3n[nH]c(=O)o3)cc2N2CCC[C@H](N)C2)c(Cl)c1Cl.Cl` [Example 18, (S)-1-(2-(3,4-Dichloro-5-methyl-1H-pyrrole-2-carboxamido)-5-(5-oxo-4,5-dihydro-1,3,4-oxadiazol-2-yl)phenyl)piperidin-3-aminium chloride], the minimum inhibitory concentration (MIC) in the experiment with S. aureus ATCC 29213 was found to be 2 µg/mL; in the experiment on E. coli ATCC 25922, 16 µg/mL; in the experiment on K. pneumoniae ATCC 10031, 0.25 µg/mL; in the experiment with P. aeruginosa ATCC 27853 it was 64 µg/mL; in the experiment with A. baumannii ATCC 17978, 16 µg/mL; in [1], 4 µg/mL. For the same compound, the minimal inhibitory concentration (MIC) in the experiment on E. faecalis ATCC 29212 was 2 µg/mL; in [2], greater than 64 µg/mL. Further, the IC50 was found to be 26.5 ± 2.1 nM in experiment [3], 406 nM in experiment [4] and 27.2 nM on E. coli DNA gyrase. Also, at S. aureus DNA gyrase (0.1 μM compound), the remaining activity at 0.1 µM was found to be 41%. Besides, the remaining activity at 1 µM at S. aureus DNA gyrase (1 μM compound) is 11%.

For orientation: MIC means the lowest concentration found to suppress growth. The IC50 is the concentration needed to halve the response being measured.
